The nature of series [1]: Lipophilicity assay (octanol/buffer Log D). The settings on record: n-octanol/sodium phosphate buffer, pH 7.4.
Experimental: 1.56 g NaH2PO4.2H2O was dissolved in 0.5 L water in a 1 L beaker. After adjusting pH to 7.4 using NaOH solution, the volume was made up to 1 L. Equal volumes of sodium phosphate buffer (10 mM, pH 7.4) and n-octanol were added to a separation funnel and mixed thoroughly by shaking and inverting the funnel several times. The two layers were allowed to separate for 2 days and then dispensed in two separate glass bottles. 10 mM stock solution was prepared in 100% DMSO and stored at 4° C. 500 μL of organic phase (1-octanol) was added to each well of a 2 mL deep well plate, followed by 500 μL of buffer and 15 μL of test substance was added. The plate was vortexed for 1 hr on a plate shaker at 1200 rpm. After incubation, the samples were allowed to equilibrate for 20 min and then centrifuged at 4000 rpm for 30 min for complete phase separation and analysed by LC-UV.
Log D=Log(area of octanol/area of buffer)
Mean, SD and % CV for each set of triplicates were calculated
Series [2] concerns the target T1, endogenous TopI from the whole cell extracts of human breast adenocarcinoma (MCF7) cell (Homo sapiens, UniProt P11387).
T1 construct: TopI enzyme in the extract is conserved in its native structure among a plethora of other cellular proteins; endogenous in cells; host or cells: MCF7 whole cell extract
T1 sequence (P11387 1-765): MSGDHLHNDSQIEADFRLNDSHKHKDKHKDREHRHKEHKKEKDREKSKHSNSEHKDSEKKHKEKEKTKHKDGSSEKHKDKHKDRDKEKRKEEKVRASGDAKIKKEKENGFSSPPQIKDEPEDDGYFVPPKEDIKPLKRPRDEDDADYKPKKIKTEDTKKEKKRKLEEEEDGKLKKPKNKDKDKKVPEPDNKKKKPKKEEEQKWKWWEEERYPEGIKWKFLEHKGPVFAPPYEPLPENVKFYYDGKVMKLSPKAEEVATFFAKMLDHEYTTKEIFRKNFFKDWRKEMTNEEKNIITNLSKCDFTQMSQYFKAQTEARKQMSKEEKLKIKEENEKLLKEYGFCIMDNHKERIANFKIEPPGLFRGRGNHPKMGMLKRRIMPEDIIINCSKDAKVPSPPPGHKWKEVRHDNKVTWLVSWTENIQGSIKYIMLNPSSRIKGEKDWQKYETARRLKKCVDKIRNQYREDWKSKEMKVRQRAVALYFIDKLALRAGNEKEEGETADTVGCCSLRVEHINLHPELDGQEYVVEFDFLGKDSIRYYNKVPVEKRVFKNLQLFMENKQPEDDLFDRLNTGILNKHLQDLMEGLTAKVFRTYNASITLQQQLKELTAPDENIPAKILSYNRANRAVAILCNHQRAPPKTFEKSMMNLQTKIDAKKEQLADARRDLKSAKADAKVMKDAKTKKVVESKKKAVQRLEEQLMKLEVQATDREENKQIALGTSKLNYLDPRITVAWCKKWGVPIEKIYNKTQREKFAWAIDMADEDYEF
Briefly: Plasmid DNA relaxation assay with MCF7 cell lysates (ex vivo). Type of series: biochemical. The settings on record: MCF7 cell lysates as source of TopI. As to the method: (§1) Human ToPI Inhibition in Plasmid DNA Relaxation Assays with Recombinant TopI (In Vitro) or MCF7 Cell Lysates (Ex Vivo)
(§2) Relaxation of supercoiled pBSSK(^+) DNA with recombinant human TopI (HTopI) at a molar ratio of 3:1 at 37° C. for 30 minutes was performed
cellular extracts were utilized as a source of TopI (ex vivo) in plasmid DNA relaxation assays. TopI enzyme in the extract is conserved in its native structure among a plethora of other cellular proteins.

The target of series [3] is T2, recombinant human TopI (HTopI) (Homo sapiens, UniProt P11387).
T2 sequence (P11387 1-765): T1 sequence (P11387 1-765)
In words: Gel based plasmid DNA relaxation assay with recombinant TopI (in vitro). Type of series: biochemical. The settings on record: recombinant human TopI, plasmid DNA relaxation. As to the method:
as §1, §2

Series [4] is described as follows: Caco-2 permeability (21 day culture of Caco-2 cell monolayer). The settings on record: human; for recovery at 120 min, 10 μM: Caco-2, pH 7.4, Caco-2. In kind it is in vitro ADME. In a few lines: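 Caco-2 monolayers grown 21 days, used when TEER >230 ohm·cm2; compound at 10 μM final in HBSS pH 7.4 dosed apical or basal, receiver HBSS with 2% BSA, sampled at 120 min at 37° C. Bidirectional transport quantified by LC-MS/MS against single-point calibration.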

Series [5] deals with T3, human TopI-DNA cleavage complexes (TopIcc) (Homo sapiens, UniProt P11387).
T3 sequence (P11387 1-765): T1 sequence (P11387 1-765)
In words: Plasmid DNA cleavage assay. The settings on record: compared with CPT, FIG. 3 and 4. In kind it is biochemical. As to the method: Cleavage reaction and electrophoresis in agarose gel were performed as described in B. Kundu, J. Med. Chem. 2019, 62, 3428-3446. Lane 1 comprises 50 fmol of pBluescript (SK^+) supercoiled DNA. Lanes 2-9 are same as lane 1 but incubated with equal amounts (100 fmol) of HTopI at the indicated concentration of CPT or compound 24 or only DMSO.
The mechanism of TopI inhibition with compound 24 in the plasmid DNA cleavage assays was investigated.

Series [6] can be described thus: Solubility assay (pH 7.4 pION buffer, UV). In kind it is physicochemical. The settings on record: pH 7.4 pION buffer, aqueous buffer, kinetic from dmso stock; pH 7.4 buffer, 18 hours incubation; read-out: Avg. Solubility (μg/mL) at pH 7.4. As to the method:
5 μL of 20 mM DMSO stock from the stock plate was added to the reaction deep well plate containing 495 μL of pH 7.4 pION buffer (including DMSO control) respectively and the samples were mixed and incubated for 18 hours. The plate was sealed well during the incubation process. The DMSO content in the sample was <1.0%. The concentration in deep well plates was 200 μM. 4 μL of 20 mM stock (including DMSO control) was added to 996 μL of acetonitrile to prepare the working stock plate. 75 μL of working stock was added to 75 μL of blank buffer and read on spectrophotometer as reference plate at 240 nm. At the end of the incubation period, 100 μL of sample from storage plate was vacuum filtered using a filter plate. This step wets the filters and the filtrate was discarded. Another 200 μL of the sample from deep well plate was vacuum filtered in to a new filter collection plate. 75 μL of the filtrate from the filter collection plate was transferred to a UV sample plate. 75 μL of acetonitrile was added to this UV plate. The solution was mixed and the spectrum was read using the UV spectrophotometer at 240 nm. Plates were read on spectramax using SoftMax Pro software version 5.3.

In brackets after ≈: the same amount, converted by molar mass. Like-named read-outs stand apart in the source and are kept apart here.

Take `Nc1ccc(-c2ccc3ncc(-c4nnco4)c(NCCCn4ccnc4)c3c2)cn1` [Compound 24, N-(3-(1H-imidazol-1-yl)propyl)-6-(6-aminopyridin-3-yl)-3-(1,3,4-oxadiazol-2-yl)quinolin-4-amine]: in series [1], the logD – broadly, the decadic logarithm of the distribution of all forms, ionised or not, between an organic phase and buffer at a given pH – was 3.51. The IC50 (usually the concentration that inhibits the measured activity by half) in series [2] was found to be 1830 nM; in series [3], 21 nM. Moreover, the efflux ratio – broadly, the permeability from basolateral to apical divided by that in the opposite direction, in the common usage – at 120 min, 10 μM in series [4] (Caco-2, pH 7.4) was 4.54. In addition, the recovery at 120 min, 10 μM stood at 77.3% in series [4] (read-out: A to B % Recovery) and 77.7% in series [4] (read-out: B to A % Recovery). Besides, the Papp A→B at 120 min, 10 μM in series [4] (pH 7.4, Caco-2, 10 μM, 120 min, read-out: Papp Apical to Basal) is 6.47 ×10⁻⁶ cm/s. Also, the Papp B→A at 120 min, 10 μM in series [4] (pH 7.4, Caco-2, 10 μM, 120 min, read-out: Papp Basal to Apical) stood at 27.4 ×10⁻⁶ cm/s. For the same compound, the “stabilisation/trapping of TopI-DNA cleavage complexes (TopIcc)” value in series [5] was “capable of stabilising TopIcc formation like CPT”. The solubility at 18 h in series [6] came out at 27.2 µg/mL (≈ 66 µM).
